Measurements from patent US20170363646A1, “METHOD FOR DETECTING MOLECULES THAT INHIBIT THE INTERACTION OF CD36 PROTEIN WITH AMYLOID BETA” (Instituto de Investigaciones Cientificas y Servicios de …, priority 2015, published 2017).

Assays:
microglial cell line = details: previously demonstrated (17); cited from earlier work
[1] = molecular target: interaction between CD36 and fAβ1-42 (Homo sapiens, UniProt P16671); details: cell-based assay, previously demonstrated (17); cited from earlier work
[2] = molecular target: T1, interaction between rCD36 and fAβ1-42 (Homo sapiens, UniProt P16671); assay: colorimetric rCD36-fAβ1-42 interaction assay on polystyrene plate; format: binding; details: added 30 minutes prior to fAβ1-42 and maintained, p<0.05 by t-test, FIG. 7
T1 construct: the extracellular domain of the CD36 protein, corresponding to Gly30-Asn439; 6xHis (C); made in house; host or cells: Escherichia coli BL21 (DE3), pET30-CD36; purified by IMAC under denaturing conditions and renatured in PBS
Source text: The invention consists in the development of a rapid colorimetric procedure that through the adhesion of the recombinant protein CD36 to a polystyrene plate enables the evaluation of molecules that can inhibit the interaction of such protein and the amyloid beta. The process or method of this invention is based on the interaction of A) recombinant extracellular portion of the CD36 protein with B) the Aβ peptide in its fibril state. […] The presence of compounds that inhibit the ligand-receptor interaction in the reaction produces a reduction of the colorimetric signal generated after the addition of the substrate (FIG. 1). The fibrillar Aβ is prepared on the basis of the synthetic peptide incubated at 37° C., in distilled water. The fibrils are prepared by controlling the polymerization of the monomers, which is monitored through the Thioflavin T fluorescent assay (11). […]
Considering that the vast majority of the natural or synthetic compounds that will be tested in the screening phase are diluted in Dimethyl Sulfoxide (DMSO), the tolerance of the assay to this solvent was evaluated. First, the assay sensitivity was evaluated at a concentration of 0.1% DMSO in conjugated serial dilutions where concentrations of rCD36 and fAβ1-42 varied, similar to the description given in example 2 (FIG. 3). […] Later, the tolerance of the assay was evaluated at different doses of DMSO. […]

T1 sequence (P16671 30-439): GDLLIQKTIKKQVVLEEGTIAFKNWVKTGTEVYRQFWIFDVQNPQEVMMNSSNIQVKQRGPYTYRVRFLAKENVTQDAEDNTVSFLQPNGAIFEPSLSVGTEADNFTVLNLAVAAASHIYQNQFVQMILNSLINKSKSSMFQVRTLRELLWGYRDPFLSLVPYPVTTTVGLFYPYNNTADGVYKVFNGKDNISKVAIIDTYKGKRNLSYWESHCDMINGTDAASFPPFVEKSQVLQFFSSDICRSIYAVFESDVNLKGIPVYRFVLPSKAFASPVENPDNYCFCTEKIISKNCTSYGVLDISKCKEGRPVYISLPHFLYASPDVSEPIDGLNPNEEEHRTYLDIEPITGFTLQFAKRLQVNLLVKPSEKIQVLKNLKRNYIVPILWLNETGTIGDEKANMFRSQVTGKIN
interaction between CD36 and fAβ1-42, sequence (P16671 whole entry): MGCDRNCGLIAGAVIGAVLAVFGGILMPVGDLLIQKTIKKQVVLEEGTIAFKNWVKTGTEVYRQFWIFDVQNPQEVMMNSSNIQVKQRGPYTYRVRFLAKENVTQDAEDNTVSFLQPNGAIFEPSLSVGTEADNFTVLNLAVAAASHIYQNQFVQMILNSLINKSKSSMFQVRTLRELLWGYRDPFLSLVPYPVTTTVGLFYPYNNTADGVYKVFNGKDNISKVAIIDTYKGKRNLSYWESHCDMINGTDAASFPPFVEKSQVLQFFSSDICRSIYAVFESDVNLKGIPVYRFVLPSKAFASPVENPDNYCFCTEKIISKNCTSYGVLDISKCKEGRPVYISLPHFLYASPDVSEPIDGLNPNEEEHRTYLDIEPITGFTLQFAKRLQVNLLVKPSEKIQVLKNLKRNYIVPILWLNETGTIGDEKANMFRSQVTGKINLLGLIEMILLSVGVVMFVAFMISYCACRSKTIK

decrease of the interaction between rCD36 and fAβ1-42 ([2]; ursolic acid 100 μM): significant decrease | decrease of the interaction between rCD36 and fAβ1-42 ([2]; ursolic acid 200 μM): significant decrease
Structure (SMILES): C[C@H]1[C@H](C)CC[C@]2(C(=O)O)CC[C@]3(C)C(=CC[C@@H]4[C@@]5(C)CC[C@H](O)C(C)(C)[C@@H]5CC[C@]43C)[C@H]12 [ursolic acid]
effect on Aβ-induced nitric oxide production (microglial cell line): this inhibition impacts on the Aβ-induced nitric oxide production | inhibition of the interaction between CD36 and fAβ1-42 [1]: inhibits such interaction
